The values below come from ChEMBL document CHEMBL1128786, “Design, synthesis and evaluation of C/D-ring analogs of the fungal metabolite K-76 as potential complement inhibitors” (Bioorg Med Chem Lett, 1995).

SMILES strings stand for the structures. Some results are limits rather than exact numbers.

By IC50 is commonly meant the concentration that inhibits the measured activity by half. Lower therefore signals greater potency in that assay. What is called EC50 is the concentration that produces a half-maximal response. A lower EC50 goes with an effect from little substance.

For assay [1], the species on record is Homo sapiens. In words: The concentration of compound required to inhibit complement induced hemolysis by 50%. The format is functional.
A short description of assay [2]: The concentration of compound required to cause 50% hemolysis in the absence of complement. The format is functional, Ovis aries.

For `CC1(C)Cc2c(Oc3ccccc3)cc(-c3nn[nH]n3)cc2O1`, the IC50 in assay [1] worked out at 0.195 mM. This compound had an EC50 in assay [2] of 0.65 mM.
In assay [1], `CC1(C)Cc2c(O)cc(C(=O)O)cc2O1` gave an IC50 above 1.44 mM. Besides, the EC50 in assay [2] was above 1.44 mM.
As to `CC1(C)Cc2c(Oc3ccccc3)cc(C=O)cc2O1`, the IC50 in assay [1] is above 1.12 mM. In assay [2], this compound gave an EC50 above 1.12 mM.
`COc1cc(-c2nn[nH]n2)cc2c1CC(C)(C)O2` showed an IC50 in assay [1] of 0.245 mM. This compound also gave an EC50 in assay [2] above 1.22 mM.
`CC1(C)Cc2c(O)cc(C=O)cc2O1`: the IC50 in assay [1] is above 1.56 mM. The same compound yielded an EC50 in assay [2] above 1.56 mM.
For the compound `CC1(C)Cc2c(Oc3ccccc3)cc(C(=O)O)cc2O1`, the IC50 in assay [1] was above 1.06 mM. Further, in assay [2], the EC50 is above 1.06 mM.
With `C[C@@H]1CCC2C(C)(C)[C@H](O)[C@H](O)C[C@]2(C)[C@@]12Cc1c(O)cc(C(=O)O)c(C=O)c1O2` (some centres not stated), the EC50 in assay [2] is above 0.68 mM.
Take `COc1cc(C(=O)O)cc2c1CC(C)(C)O2`: in assay [1], the IC50 was above 1.35 mM. The compound also returned an EC50 in assay [2] above 1.35 mM.
For `COc1cc(C=O)cc2c1CC(C)(C)O2`, half-maximal inhibition in assay [1] (IC50) was put at 1.1 mM. The compound further displayed an EC50 in assay [2] above 1.46 mM.
